Assay results from article PMC7464788, “Modification and Targeted Design of N-Terminal Truncates Derived from Brevinin with Improved Therapeutic Efficacy” (Biology, 2020).
Converted amounts (≈) assume the structure as drawn. Positions of bridges follow the written chain, without caps; N, C: chain ends. Residues, ends and D or L forms follow the SMILES beside them.

Legend:
horse erythrocytes = experiment: Haemolytic assay; type: cell-based; details: 2% (v/v) horse red blood cells, 37 °C, 2 h; 1% Triton-X 100 positive control; three times in five replicates
Protocol: The haemolytic assay was carried out to detect the cytotoxicity of each peptide to erythrocytes obtained from fresh defibrinated horse blood as described before. An appropriate volume of horse blood solution was collected via washing and transferring until the supernatant was clear. Then, 2% (v/v) suspension of red blood cells were incubated with peptide at 37 °C for 2 h. For positive and negative controls, the red blood cells were incubated with 1% (v/v) Triton-X 100 and Phosphate-buffered saline (PBS) solution, respectively. The 10% of maximal haemolysis concentration (HC10, μM) was utilised to assess the haemolytic potential. Experiments were repeated three times in five replicates.

[1] = tested on: Pseudomonas aeruginosa (ATCC27853); type: cell-based
Protocol: (§1) The antimicrobial assay was carried out to detect the minimum inhibitory concentration (MIC) and the minimum bactericidal concentration (MBC) of each peptide on the microbes as described previously. Seven different microorganisms were used in the assay: Gram-positive bacteria Staphylococcus aureus (NCTC10788), Enterococcus faecalis (NCTC12697), and methicillin-resistant S. aureus (MRSA) (NCTC12493); Gram-negative bacteria Escherichia coli (NCTC10418), Pseudomonas aeruginosa (ATCC27853), and Klebsiella pneumoniae (ATCC 43816); and fungi Candida albicans (NCYC1467). Bacterial strains were inoculated and grown to mid-log phase in fresh Mueller Hinton broth (MHB) at 37 °C for overnight, then bacteria inoculum suspensions were subcultured until reaching the logarithmic growth phase by measuring OD of the cultures at wavelength 550 nm. Then, 99 µL bacteria and 1 µL peptide solution were mixed in the 96-wells microplate. For positive and negative controls, the bacteria were incubated with antibiotics (Norfloxacin for Gram-positive bacteria and Gram-negative bacteria; Amphotericin B for fungi) solution and MHB medium, respectively. Experiments were repeated five times in five replicates.

[2] = tested on: Candida albicans (NCYC1467); type: cell-based
Protocol: as §1

[3] = tested on: Klebsiella pneumoniae (ATCC 43816); type: cell-based
Protocol: as §1

[4] = tested on: Enterococcus faecalis (NCTC12697); type: cell-based
Protocol: as §1

[5] = tested on: methicillin-resistant S. aureus (MRSA) (NCTC12493); type: cell-based, Staphylococcus aureus
Protocol: as §1

[6] = tested on: Staphylococcus aureus (NCTC10788); type: cell-based
Protocol: as §1

[7] = tested on: Escherichia coli (NCTC10418); type: cell-based
Protocol: as §1

MIC P. aeruginosa [1]	MIC C. albicans [2]	MIC K. pneumoniae [3]	MIC E. faecalis [4]	MIC MRSA [5]	MIC E. coli [7]	Structure (SMILES)	HC10 (concentration causing 10% red cell lysis) (horse erythrocytes)	MBC P. aeruginosa [1]	MBC C. albicans [2]	MBC K. pneumoniae [3]	MBC E. faecalis [4]	MBC MRSA [5]	MBC S. aureus [6]	MBC E. coli [7]
512 µM (≈ 839 µg/mL)	128 µM (≈ 210 µg/mL)	256 µM (≈ 419 µg/mL)	512 µM (≈ 839 µg/mL)	16 µM (≈ 26.2 µg/mL)		CC[C@H](C)[C@@H]1NC(=O)[C@H](C)NC(=O)[C@@H](NC(=O)[C@H](Cc2ccccc2)NC(=O)[C@@H](NC(=O)[C@H](CCCCN)NC(=O)[C@@H]2CCCN2C(=O)[C@H](CC(C)C)NC(=O)[C@H](Cc2ccccc2)NC(=O)[C@@H](N)CCCCN)[C@@H](C)CC)CSSC[C@@H](C(=O)O)NC(=O)[C@H](CCCCN)NC(=O)[C@H](CCCCN)NC(=O)[C@H]([C@@H](C)O)NC1=O [KB2] (H-KFLPKIFCAITKKC-OH; disulfide 8-14)	154 µM	> 512 µM	512 µM (≈ 839 µg/mL)	256 µM (≈ 419 µg/mL)	> 512 µM	128 µM (≈ 210 µg/mL)		
256 µM (≈ 452 µg/mL)	32 µM (≈ 56.5 µg/mL)	128 µM (≈ 226 µg/mL)	512 µM (≈ 904 µg/mL)	16 µM (≈ 28.3 µg/mL)	16 µM (≈ 28.3 µg/mL)	CC[C@H](C)[C@@H]1NC(=O)[C@H](C)NC(=O)[C@@H](NC(=O)[C@H](Cc2ccccc2)NC(=O)[C@@H](NC(=O)[C@H](CCCCN)NC(=O)[C@@H]2CCCN2C(=O)[C@H](CC(C)C)NC(=O)[C@H](Cc2ccccc2)NC(=O)[C@H](CCCCN)NC(=O)[C@@H](N)CCCCN)[C@@H](C)CC)CSSC[C@@H](C(=O)O)NC(=O)[C@H](CCCCN)NC(=O)[C@H](CCCCN)NC(=O)[C@H]([C@@H](C)O)NC1=O [KKB2] (H-KKFLPKIFCAITKKC-OH; disulfide 9-15)	207 µM	> 512 µM	64 µM (≈ 113 µg/mL)	256 µM (≈ 452 µg/mL)	512 µM (≈ 904 µg/mL)	64 µM (≈ 113 µg/mL)	64 µM (≈ 113 µg/mL)	32 µM (≈ 56.5 µg/mL)
64 µM (≈ 125 µg/mL)	8 µM (≈ 15.6 µg/mL)	32 µM (≈ 62.5 µg/mL)	256 µM (≈ 500 µg/mL)	8 µM (≈ 15.6 µg/mL)	16 µM (≈ 31.2 µg/mL)	CC[C@H](C)[C@@H]1NC(=O)[C@H](C)NC(=O)[C@@H](NC(=O)[C@H](Cc2ccccc2)NC(=O)[C@@H](NC(=O)[C@H](CCCCN)NC(=O)[C@H](Cc2c[nH]c3ccccc23)NC(=O)[C@@H]2CCCN2C(=O)[C@H](CC(C)C)NC(=O)[C@H](Cc2ccccc2)NC(=O)[C@H](CCCCN)NC(=O)[C@@H](N)CCCCN)[C@@H](C)CC)CSSC[C@@H](C(=O)O)NC(=O)[C@H](CCCCN)NC(=O)[C@H](CCCCN)NC(=O)[C@H]([C@@H](C)O)NC1=O [KKWB2] (H-KKFLPWKIFCAITKKC-OH; disulfide 10-16)	140.04 µM	64 µM (≈ 125 µg/mL)	32 µM (≈ 62.5 µg/mL)	32 µM (≈ 62.5 µg/mL)	512 µM (≈ 1000 µg/mL)	32 µM (≈ 62.5 µg/mL)	16 µM (≈ 31.2 µg/mL)	32 µM (≈ 62.5 µg/mL)
128 µM (≈ 234 µg/mL)	16 µM (≈ 29.2 µg/mL)	64 µM (≈ 117 µg/mL)	256 µM (≈ 467 µg/mL)	8 µM (≈ 14.6 µg/mL)	16 µM (≈ 29.2 µg/mL)	CC[C@H](C)[C@@H]1NC(=O)[C@H](C)NC(=O)[C@@H](NC(=O)[C@H](Cc2ccccc2)NC(=O)[C@@H](NC(=O)[C@H](CCCCN)NC(=O)[C@H](Cc2c[nH]c3ccccc23)NC(=O)[C@@H]2CCCN2C(=O)[C@H](CC(C)C)NC(=O)[C@H](Cc2ccccc2)NC(=O)[C@@H](N)CCCCN)[C@@H](C)CC)CSSC[C@@H](C(=O)O)NC(=O)[C@H](CCCCN)NC(=O)[C@H](CCCCN)NC(=O)[C@H]([C@@H](C)O)NC1=O [KWB2] (H-KFLPWKIFCAITKKC-OH; disulfide 9-15)	99.81 µM	256 µM (≈ 467 µg/mL)	64 µM (≈ 117 µg/mL)	128 µM (≈ 234 µg/mL)	512 µM (≈ 934 µg/mL)	64 µM (≈ 117 µg/mL)	32 µM (≈ 58.4 µg/mL)	32 µM (≈ 58.4 µg/mL)
